Results on 15 compounds are retold here after article PMC9298186, “Thiamine analogues as inhibitors of pyruvate dehydrogenase and discovery of a thiamine analogue with non-thiamine related antiplasmodial activity” (RSC Medicinal Chemistry, 2022).

Broadly, the inhibition is the share of the control response that was lost under treatment. In general, Ki refers to a measure of affinity in units of concentration, obtained from inhibition or displacement. The term melting point denotes the temperature, or range, at which the solid turns liquid. By Kd is commonly meant the free concentration of one partner at which half of the binding sites on the other are occupied at equilibrium, for simple one-to-one binding.

Data set [1] has as its system P. falciparum 3D7 parasites expressing PfTPK-GFP. The data set is described as follows: Antiplasmodial activity against parasites overexpressing PfTPK-GFP. The data set is classed as cell-based, Plasmodium falciparum. The conditions noted are these: versus mock and wild-type parasites; presence or absence of thiamine (2.97 μM).
The target in data set [2] is T1, porcine PDHc E1 (Sus scrofa, UniProt F1SGH5+P29804).
T1 sequence (P29804 31-390): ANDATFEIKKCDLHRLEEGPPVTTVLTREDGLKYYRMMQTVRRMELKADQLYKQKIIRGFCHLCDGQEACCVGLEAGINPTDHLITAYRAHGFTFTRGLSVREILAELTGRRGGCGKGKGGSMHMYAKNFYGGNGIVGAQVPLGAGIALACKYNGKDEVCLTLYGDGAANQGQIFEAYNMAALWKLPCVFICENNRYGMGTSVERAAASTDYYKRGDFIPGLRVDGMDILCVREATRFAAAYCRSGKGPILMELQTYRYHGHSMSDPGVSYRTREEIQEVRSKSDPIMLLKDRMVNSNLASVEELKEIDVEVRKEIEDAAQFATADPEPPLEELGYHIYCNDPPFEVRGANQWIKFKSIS
T1 sequence (F1SGH5 32-360): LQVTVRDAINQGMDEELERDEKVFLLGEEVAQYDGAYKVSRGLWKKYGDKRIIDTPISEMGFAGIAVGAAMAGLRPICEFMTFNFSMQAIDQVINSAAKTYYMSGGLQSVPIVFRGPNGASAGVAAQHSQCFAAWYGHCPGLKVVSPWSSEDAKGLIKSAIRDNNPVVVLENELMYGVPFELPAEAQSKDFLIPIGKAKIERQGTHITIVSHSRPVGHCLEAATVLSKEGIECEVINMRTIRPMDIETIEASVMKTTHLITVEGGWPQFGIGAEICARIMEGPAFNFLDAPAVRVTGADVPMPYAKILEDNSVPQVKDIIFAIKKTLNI
The data set is described as follows: Porcine PDHc-E1 inhibition, DCPIP reduction assay. The data set is classed as biochemical. The following applies: for inhibition at 50 µM: read-out: Inhibition (%) of PDH E1; for inhibition at 100 µM: read-out: Inhibition (%) of PDH E1 at [TPP] = 100 μM.

Data set [3] deals with Zymomonas mobilis pyruvate decarboxylase (zmPDC). On the set-up: method as in PMID 19082157. The following applies: cited from earlier work.
Data set [4] deals with P. falciparum 3D7 (chloroquine-sensitive) strain. The data set is described as follows: In vitro antiplasmodial activity assay (SYBR-Safe; malstat for 15). It counts as cell-based, Plasmodium falciparum. The conditions noted are these: for IC50: Plasmodium falciparum; for Effect of changing folic acid concentration on parasite sensitivity: […] versus 220 μM folic acid in medium.

Data set [5] has as its target T1, porcine PDHc E1. The data set is described as follows: Porcine PDHc-E1 inhibition, DCPIP reduction assay. The conditions noted are these: for IC50: [TPP] = 10 μM, mean ± SEM, read-out: IC50 PDH E1; for Ki: read-out: Ki PDH E1. It counts as biochemical.
The target of data set [6] is pig heart pyruvate dehydrogenase. On the set-up: method as in PMID 183746. The following applies: read-out: KD for TPP in pig heart pyruvate dehydrogenase; cited from earlier work.
A further data set has as its system P. falciparum. Details: method as in earlier work. The conditions noted are these: ChEMBL; read-out: IC50 against P. falciparum; cited from earlier work.
Data set [7] concerns human foreskin fibroblast (HFF) cells. The data set is classed as cell-based. The following applies: for Selectivity index: HFF cytotoxicity versus antiplasmodial IC50; for Cytotoxicity: human, 96 h. As to the method:
Cytotoxicity evaluation of selected compounds
Cytotoxicity testing of selected compounds was conducted using HFF cells (human foreskin fibroblasts) as described by Howieson et al. with some modifications.10 Briefly, the HFF cells were seeded in 96- […]
Cycloheximide (10 µM; a protein synthesis inhibitor) was used as a control to indicate complete inhibition of HFF cell proliferation. Plates were […]
A sample of the supernatant
(150 µL) was then carefully aspirated from each well and discarded. The plates were then stored at - 80 °C. SYBR-Safe assay was used to measure cell proliferation. Briefly, the plates were thawed, SYBR-Safe lysis solution (150 µL) was added to each well and mixed via pipetting to ensure the HFF cells were detached from the plate and lysed. The plates were then processed as described for the […]
Fig. S7. […] Data are averaged […]
from three independent experiments, each carried out in triplicate. Error bars represent SEM and, where not visible, are smaller than the symbols. […]
10Howieson, V.M.; Tran, E.; Hoegl, A.; Fam, H.L.; Fu, J.; Sivonen, K.; Li, X.X.; Auclair, K.; Saliba, K.J. Triazole substitution of a labile amide bond […]

Where [8] appears, read: 3D7, medium with 2.97 μM thiamine, ± SEM, read-out: Antiplasmodial IC50, 2.97 μM thiamine.
Setting [9] is: 3D7, medium with 297 μM thiamine, ± SEM, read-out: Antiplasmodial IC50, 297 μM thiamine.
Where [10] appears, read: 3D7, thiamine-free medium, ± SEM, three independent experiments, read-out: Antiplasmodial IC50, thiamine free.
The mark [11] stands for this setting: 3D7, read-out: Antiplasmodial IC50, 2.97 μM thiamine.
The mark [12] stands for this setting: 3D7, read-out: Antiplasmodial IC50, 297 μM thiamine.
[13] abbreviates: 3D7, read-out: Antiplasmodial IC50, thiamine free.

SMILES strings stand for the structures. Read-outs that look alike come from different tables or passages of the source. A value given as a limit tells only on which side of the number the result lay.

For the compound `Cc1ncc(C[n+]2csc(CCO)c2C)c(O)n1` [oxythiamine, reference compound], the “Effect of PfTPK overexpression on parasite sensitivity” value (from here on “Effect of PfTPK overexpression”) in [1] was “increased the sensitivity”.
Take `Cc1ncc(Cn2cc(CCO)nn2)c(N)n1` [Compound 6, reference compound]: on porcine PDHc E1 [2], the inhibition at 50 µM worked out at 60 ± 7% and the inhibition at 100 µM is 35 ± 6%. Moreover, in [3], the “Binding to zmPDC, times weaker than TPP” value is “about 1000 times”.
Take `Cc1ncc(Cn2cc(CCOc3ccc([N+](=O)[O-])cc3)nn2)c(N)n1` [Compound 13a]: the figures for the IC50 in [4] (setting [8]), in data set [4] (setting [9]) and in data set [4] (setting [10]) were > 200 µM, > 200 µM and 168 ± 26 µM, respectively. In addition, at porcine PDHc E1 [2], the inhibition at 50 µM came to 75 ± 3%. For the same compound, the inhibition at 100 µM on porcine PDHc E1 [2] worked out at 53 ± 4%.
`Cc1ncc(Cn2cc(CCOC(=O)c3cccc([N+](=O)[O-])c3)nn2)c(N)n1` [Compound 12g]: the melting point is 188 to 189 °C. In addition, on porcine PDHc E1 [5], the IC50 is 36 ± 4 µM and the inhibition constant Ki was found to be 0.182 ± 0.02 µM. Besides, the IC50 in [4] (setting [11]) turned out to be 139 ± 9 µM. In addition, the IC50 in data set [4] (setting [12]) stood at 143 ± 10 µM. The IC50 in data set [4] (setting [13]) stood at 135 ± 15 µM. Moreover, at porcine PDHc E1 [2], the inhibition at 50 µM was determined as 56 ± 5% and the inhibition at 100 µM worked out at 38 ± 5%.
Turning to `Cc1ncc(Cn2cc(CCOP(=O)(O)OP(=O)(O)O)nn2)c(N)n1` [Compound 7], the “Binding to zmPDC, times tighter than TPP” value in data set [3] is “about 10 000 times”.
Take `Cc1ncc(Cn2cc(CCOC(=O)c3ccc([N+](=O)[O-])cc3)nn2)c(N)n1` [Compound 12f]: the IC50 in data set [4] (setting [8]), in data set [4] (setting [9]) and in [4] (setting [10]) was > 25 µM each time. Besides, the inhibition at 50 µM at porcine PDHc E1 [2] was found to be 55 ± 5%. Moreover, at porcine PDHc E1 [2], the inhibition at 100 µM was determined as 40 ± 8%.
Consider `Cc1ncc(C[n+]2csc(CCO[P@](=O)(O)OP(=O)(O)O)c2C)c(N)n1` [TPP, thiamine pyrophosphate], for which the dissociation constant Kd in data set [3] (read-out: KD of TPP, zmPDC) was ~0.35 µM; in data set [6], 0.05 ± 0.01 µM.
For the compound `Cc1ncc(Cn2cc(CCOC(=O)c3ccc(Br)cc3)nn2)c(N)n1` [Compound 12e], the values for the IC50 in data set [4] (setting [8]), in data set [4] (setting [9]) and in data set [4] (setting [10]) were 85 ± 4 µM, 82 ± 8 µM and 75 ± 6 µM, respectively. In addition, the inhibition at 50 µM at porcine PDHc E1 [2] was 73 ± 2%. Also, the inhibition at 100 µM at porcine PDHc E1 [2] came to 46 ± 5%.
Consider `C=CCc1cnc(C)nc1NCc1ccccc1` [Compound 16], for which the IC50 in the data set on P. falciparum was 18.5 µM.
As for `Cc1ncc(Cn2cc(CCO)nn2)c(NCc2ccc(Br)cc2)n1` [Compound 15], the “Inhibitory activity against porcine PDHc E1” value at porcine PDHc E1 [5] was “none”. Besides, the IC50 in data set [4] (3D7, read-out: Antiplasmodial IC50 (text, thiamine concentration not specified)) is ~2 µM; in data set [4] (setting [8]), 2.3 ± 0.1 µM; in data set [4] (setting [9]), 2.7 ± 0.01 µM; in data set [4] (setting [10]), 2.2 ± 0.2 µM. Also, the “Effect of changing folic acid concentration on parasite sensitivity” value in data set [4] is “no difference”. For the same compound, the Selectivity index in data set [7] was determined as 45. This compound also gave a Cytotoxicity in [7] of 98 ± 7 µM. In addition, the “Effect of PfTPK overexpression” value in [1] is “no effect”. Also, the inhibition at 50 µM at porcine PDHc E1 [2] was 0%.
For `COc1ncnc(NS(=O)(=O)c2ccc(N)cc2)c1OC` [sulfadoxine, reference compound], the “Effect of changing folic acid concentration on parasite sensitivity” value in data set [4] is recorded as “diminished”.
For `Cc1ncc(Cn2cc(CCOC(=O)c3ccccc3Cl)nn2)c(N)n1` [Compound 12d], the melting point lay within 184 to 185 °C. Further, the IC50 in [4] (setting [8]) came out at 347 ± 20 µM. In data set [4] (setting [9]), the IC50 is 343 ± 33 µM. For the same compound, the IC50 in data set [4] (setting [10]) was found to be 339 ± 31 µM. For the same compound, on porcine PDHc E1 [2], the inhibition at 50 µM was found to be 61 ± 3% and the inhibition at 100 µM was determined as 38 ± 3%.
For the compound `Cc1ncc(Cn2cc(CCOC(=O)c3cccc(Cl)c3)nn2)c(N)n1` [Compound 12c], the IC50 in [4] (setting [8]) was 62 ± 17 µM. The IC50 in [4] (setting [9]) came out at 79 ± 5 µM. Besides, the IC50 in [4] (setting [10]) was 63 ± 15 µM. Besides, in data set [7], the Selectivity index is >3.2 and the Cytotoxicity was >200 µM. Further, in data set [1], the “Effect of PfTPK overexpression” value is “no effect”. Further, on porcine PDHc E1 [2], the inhibition at 50 µM came to 72 ± 3% and the inhibition at 100 µM is 48 ± 3%.
Regarding `Cc1ncc(Cn2cc(CCOC(=O)c3ccccc3)nn2)c(N)n1` [Compound 12a], the IC50 on porcine PDHc E1 [5] is 20 ± 3 µM; in [4] (setting [11]), 136 ± 18 µM; in data set [4] (setting [12]), > 200 µM; in data set [4] (setting [13]) it was 128 ± 13 µM. Moreover, the Ki at porcine PDHc E1 [5] turned out to be 0.1 ± 0.015 µM. The Cytotoxicity in data set [7] is >200 µM. Further, in [1], the “Effect of PfTPK overexpression” value is “no effect”. Moreover, the inhibition at 50 µM at porcine PDHc E1 [2] stood at 72 ± 3%. The inhibition at 100 µM at porcine PDHc E1 [2] is 44 ± 4%.
On to `Cc1ncc(Cn2cc(CCOC(=O)c3ccc(Cl)cc3)nn2)c(N)n1` [Compound 12b], for which the results for the IC50 in data set [4] (setting [11]), in [4] (setting [12]) and in [4] (setting [13]) were 125 ± 22 µM, 122 ± 6 µM and 107 ± 16 µM, respectively. The inhibition at 50 µM on porcine PDHc E1 [2] came to 81 ± 2%. Moreover, the inhibition at 100 µM on porcine PDHc E1 [2] was determined as 56 ± 3%.
